Consider 2 compounds from ChEMBL document CHEMBL4376871, “Synthesis and anti-cancer activity studies of dammarane-type triterpenoid derivatives” (Eur J Med Chem, 2020).

The test system of test [1] is SGC-7901. In words: Potency index, ratio of IC50 for AD-2 to IC50 for test compound for antiproliferative activity against human SGC7901 incubated for 48 hrs and measured after 4 hrs by MTT assay. In kind it is functional. Background: Tetrazolium dyes change colour on reduction, which living cells bring about.
The test system of test [2] is PC-3. In words: Potency index, ratio of IC50 for AD-2 to IC50 for test compound for antiproliferative activity against human PC3 incubated for 48 hrs and measured after 4 hrs by MTT assay. The format is functional.
The subject of test [3] is MGC-803. Kind of test: Antiproliferative activity against human MGC803 cells incubated for 48 hrs and measured after 4 hrs by MTT assay. In kind it is functional, cell-based.
Test [4] concerns MCF7. Kind of test: Antiproliferative activity against human MCF7 cells incubated for 48 hrs and measured after 4 hrs by MTT assay. The format is functional, cell-based.
For test [5], the system named is PC-3. Kind of test: Antiproliferative activity against human PC3 cells incubated for 48 hrs and measured after 4 hrs by MTT assay. The format is functional, cell-based.
Test [6] has as its system A549. In words: Antiproliferative activity against human A549 cells incubated for 48 hrs and measured after 4 hrs by MTT assay. In kind it is functional, cell-based.
Test [7] relates to MGC-803. Kind of test: Potency index, ratio of IC50 for AD-2 to IC50 for test compound for antiproliferative activity against human MGC803 incubated for 48 hrs and measured after 4 hrs by MTT assay. In kind it is functional.
Test [8] in a line: Cytotoxicity against human IOSE-144 cells incubated for 48 hrs and measured after 4 hrs by MTT assay. The format is cell-based.
For test [9], the system named is A549. In words: Potency index, ratio of IC50 for AD-2 to IC50 for test compound for antiproliferative activity against human A549 incubated for 48 hrs and measured after 4 hrs by MTT assay. In kind it is functional.
The test system of test [10] is SGC-7901. In words: Antiproliferative activity against human SGC7901 cells incubated for 48 hrs and measured after 4 hrs by MTT assay. The format is functional, cell-based.
Test [11] deals with MCF7. Kind of test: Potency index, ratio of IC50 for AD-2 to IC50 for test compound for antiproliferative activity against human MCF7 incubated for 48 hrs and measured after 4 hrs by MTT assay. The format is functional.
The subject of test [12] is A549. In words: Induction of apoptosis in human A549 cells assessed as nuclear shrinkage at 10 to 20 uM measured after 12 hrs by DAPI staining based fluorescence microscopic analysis. In kind it is functional, cell-based.
The test system of test [13] is A549. Kind of test: Induction of apoptosis in human A549 cells assessed as nuclear condensation at 10 to 20 uM measured after 12 hrs by DAPI staining based fluorescence microscopic analysis. The format is functional, cell-based.
For test [14], the system named is A549. In words: Induction of apoptosis in human A549 cells assessed as appearance of fragmented apoptotic bodies at 10 to 20 uM measured after 12 hrs by DAPI staining based fluorescence microscopic analysis. In kind it is functional, cell-based.

Structures are written as SMILES. The source made the active and inactive calls. No cut-off for these calls is given here. Some results are limits rather than exact numbers.

In the case of `CC(C)(O)CCC[C@@](C)(O)[C@H]1CC[C@]2(C)[C@@H]1[C@H](O)C[C@@H]1[C@@]3(C)C/C(=C\c4ccc(F)cc4F)C(=O)C(C)(C)[C@@H]3CC[C@]12C`, the “Ratio IC50” value in the test on SGC-7901 [1], in the test with PC-3 [2], in the test with MGC-803 [7], in the test with A549 [9] and in the test with MCF7 [11] was 3 - 8 each time. The IC50 (in general, the point on the concentration scale where inhibition reaches its midpoint) with MGC-803 [3] is 9.32 µM; with MCF7 [4], 8.32 µM; with PC-3 [5], 13.1 µM; in the test on A549 [6], 12.6 µM; in test [8] it was > 100 µM; in the test with SGC-7901 [10] it was 11.2 µM.
On to `CC(C)(O)CCC[C@@](C)(O)[C@H]1CC[C@]2(C)[C@@H]1[C@H](O)C[C@@H]1[C@@]3(C)CC[C@H](O)C(C)(C)[C@@H]3CC[C@]12C`, for which the result with A549 [12], in the test on A549 [13] and in the test with A549 [14] was inactive. The IC50 in the test on MGC-803 [3] is 69.8 µM; with MCF7 [4], 28.5 µM; in the test with PC-3 [5] it was 45.7 µM; with A549 [6], 22.7 µM; in test [8], > 100 µM; in the test with SGC-7901 [10], 34 µM.
